From publication PMC6100512, “In-Vitro Activity of Silybin and Related Flavonolignans against Leishmania infantum and L. donovani” (Molecules : A Journal of Synthetic Chemistry and Natural …, 2018)

Columns and labels:
[1] = tested on: intracellular amastigotes of Li BCN150; experiment: Activity against intracellular amastigotes ex vivo in mouse peritoneal Mφ; type: cell-based, Leishmania infantum; conditions: 24 h
Protocol: (§1) Antiproliferative activity of flavonolignans against intracellular amastigotes was determined ex vivo using mouse peritoneal Mφ. Infections were carried out following the method and modifications described by us. Briefly, Mφ were seeded onto 8-well cell culture slides (SLP, Lifesciences Co., Pocheon, Korea) in a final volume of 400 µL (2.5 × 10^4 Mφ/well). Plates were incubated overnight at 37 °C under humidified 5% CO2/95% air atmosphere to facilitate adherence. Stationary-phase promastigotes of Ld and Li were centrifuged (370× g, 10 min) without break in a Ficoll (Sigma, Saint Louis, MO, USA) gradient (0%, 10% in Medium 199 and 30% in sterile phosphate-buffered saline). Metacyclic promastigotes, located in the 10–30% Ficoll interphase, were recovered, washed and opsonized in 15% normal mouse serum in 1:1 solution of RPMI and HBSS medium (Gibco, Life Technologies, Paisley, UK), 0.15 mM CaCl2 and 1 mM MgCl2 at 37 °C, 5% CO2 atmosphere for 30 min. Purified metacyclic promastigotes were added to the Mφ cultures using a ratio 4:1 (promastigotes:Mφ) for Li and 10:1 for Ld. Plates were incubated at 33 °C overnight as above. Noninternalized promastigotes were eliminated by repeated washing with fresh medium. Treatments (10 µM) were added to the cultures and kept for 24 h. Slides were methanol-fixed and stained with May–Grünwald Giemsa (Merck) to determine the % of infection and the number of amastigotes/100 Mφ under microscope. Cultures untreated, treated with 0.05% DMSO and treated with 0.1 µM AmB were included as controls. Experiments were done in triplicate and the activity was expressed as % of inhibition compared to untreated cultures.

[2] = tested on: intracellular amastigotes of Ld; experiment: as above; type: cell-based, L. donovani; conditions: 24 h
Protocol: as §1, with “Slides were methanol-fixed and stained with May–Grünwald Giemsa (Merck) to determine the % of infection and the number of amastigotes/100 Mφ under microscope. Cultures untreated, treated with 0.05% DMSO and treated with 0.1 µM AmB were included as controls.” left out

Li UCM9 promastigotes = experiment: Multiplication of Li promastigotes in vitro (CellTiter-Glo, 24 h); type: cell-based, Leishmania infantum; conditions: for inhibition of growth at 120 µM: compared to untreated cultures, mean ± SD, read-out: Reduction (%) of multiplication, L infantum promastigotes
Protocol: (§2) Growth was estimated by the addition of CellTiter-Glo® (Promega, Madison, WI, USA) (1:1) in 96-well microtiter white plates (Costar, Corning). After 10 min incubation (light protected, room temperature), luminescence was determined with FLUOstar Omega (BMG Labtech) reader. Sensitivity of Ld was similarly performed with promastigotes exposed to 120 μM. Control cultures (medium, untreated promastigotes, promastigotes treated with 0.2 μM AmB) were included. Experiment was carried out in triplicate and results expressed as % of inhibition of untreated control. Approximate IC50 values of the flavonolignans showing the highest inhibitory activity against Li mid-log-phase promastigotes were determined using dose-response curves. […] The compound with the highest activity, DhiS-A, was assayed against Ld promastigotes using the latter dilution series and the same culture conditions as above. For comparative purposes, mid-log promastigotes of Li and Ld were exposed to established anti-Leishmania agents: AmB (0.0078 μ[…] and 1.0 μM); […]

Ld promastigotes = experiment: Multiplication of Ld promastigotes in vitro (CellTiter-Glo, 24 h); type: cell-based, L. donovani; conditions: Leishmania donovani; for inhibition of growth at 120 µM: compared to untreated cultures, mean ± SD, read-out: Reduction (%) of multiplication, L. donovani promastigotes
Protocol: as §2

Li promastigotes = experiment: Drug combination with DhiS-A, Chou-Talalay method (CalcuSyn); type: cell-based, Leishmania infantum; conditions: for DRI of DhiS-A in combination with AmB / Dose Required of DhiS-A in combination with AmB: AmB:DhiS-A 0.01:15; for Dose Required of DhiS-A in combination with AmB / Dose Required of DhiS-A in combination with PMM / Dose Required of DhiS-A in combination with Sb^III: computer-simulated; for DRI of DhiS-A in combination with PMM / Dose Required of DhiS-A in combination with PMM: PMM:DhiS-A 5:1; for DRI of DhiS-A in combination with Sb^III / Dose Required of DhiS-A in combination with Sb^III: Sb^III:DhiS-A 1:1
Protocol: Fixed-combination ratios of drugs were based on the IC50 values determined for the individual molecules. Mid-log-phase promastigotes of Li were exposed for 24 h at constant ratios of 0.01:15 (AmB:DhiS-A), 1:1 (Sb^III:DhiS-A) and 5:1 (PMM:DhiS-A). Dose–response curves of the combinations were analyzed with the Chou–Talalay method, based on the theorem of combination index (CI)-isobologram and CalcuSyn software. This method allows the evaluation of the type of interaction between two molecules according to mass action law. Results can be used to determine quantitatively the synergy (CI < 1), additive effect (CI = 1) or antagonism (CI > 1) of combinations. Moreover, the program allows the calculation of the drug reduction index (DRI): dose reduction in drug combinations to reach a given inhibition compared to the activity of the individual drugs.

[3] = tested on: BALB/c mouse peritoneal macrophages, Mφ; experiment: Toxicity of flavonolignans for macrophages (CellTiter-Glo); type: cell-based; conditions: Peritoneal macrophage, 24 h, 28.125 to 900 µM, approximate
Protocol: Toxicity of flavonolignans for mammalian cells was determined using mouse peritoneal Mφ. Cells obtained were counted and seeded onto 96-well cultures plates (Costar, Corning) at a final concentration of 5 × 10^4 Mφ/well (100 µL/well). Plates were incubated overnight at 37 °C and humidified 5% CO2/95% air to facilitate adherence. Cells were cultured as above for 24 h with different concentrations of the flavonolignans (28.125 µM, 56.25 µM, 112.5 µM, 225 µM, 450 µM and 900 µM). After incubation, cell viability was determined with CellTiter-Glo® as previously described. Untreated and 300 µM AmB-treated control wells were included. Experiments were done in triplicate and approximate IC50 determined.

amastigotes of L. major = tested on: amastigotes of L. major; design: method as in PMID 29716183; conditions: cited from earlier work
L. major promastigotes = tested on: L. major promastigotes; design: method as in PMID 29716183; conditions: 12.5 µM; cited from earlier work

COc1cc([C@H]2Oc3ccc(-c4oc5cc(O)cc(O)c5c(=O)c4O)cc3O[C@@H]2CO)ccc1O [Dehydroisosilybin A, dehydroisosilybin A]
Antileishmanial activity on intracellular amastigotes (in words) ([1]; 10 µM): ineffective against amastigotes
Intracellular burdens (amastigotes/100 Mφ) after treatment, Li ([1]; 10 µM): did not show any reduction
Antileishmanial activity on intracellular amastigotes (in words) ([1]; 10 µM, listed as DhiS-A): did not show any antiproliferative activity
Mφ infection (%), Li ([1]; treated with 10 µM, nontreated 50.67 ± 4.62%): 45.67 ± 7.51%
Intracellular burdens (amastigotes/100 Mφ) after treatment, Ld ([2]; 10 µM): did not show any reduction
Mφ infection (%), Ld ([2]; treated with 10 µM, nontreated 69.67 ± 8.50%): 67.0 ± 6.08%
inhibition of growth at 120 µM (Li UCM9 promastigotes; Leishmania infantum, 24 h): 38.3 ± 4.96%
IC50 (Li UCM9 promastigotes; Leishmania infantum, approximate, dose-response curve, 24 h): ~90.2 µM
Emax (Li UCM9 promastigotes; Leishmania infantum, exploratory screening, 0.94 µM up to 120 µM, read-out: Maximal effect (inhibition of growth of control cultures) on Li promastigotes): < 50%
Inhibition of Li promastigote multiplication reached in dose-response curve (Li UCM9 promastigotes; maximal concentration used 480/600 µM): complete inhibition
inhibition of growth at 120 µM (Ld promastigotes): 87.6 ± 2.82%
IC50 (Ld promastigotes; approximate, dose-response curve): ~90.2 µM
DRI of DhiS-A in combination with AmB (Li promastigotes; ED10): 0.88
Dose Required of DhiS-A in combination with AmB (Li promastigotes; ED10): 34.79 µM
DRI of DhiS-A in combination with AmB (Li promastigotes; ED25): 1.13
Dose Required of DhiS-A in combination with AmB (Li promastigotes; ED25): 44.61 µM
DRI of DhiS-A in combination with AmB (Li promastigotes; ED50): 1.47
Dose Required of DhiS-A in combination with AmB (Li promastigotes; ED50): 57.21 µM
DRI of DhiS-A in combination with PMM (Li promastigotes; ED50): 0.51
Dose Required of DhiS-A in combination with PMM (Li promastigotes; ED50): 164 µM
DRI of DhiS-A in combination with Sb^III (Li promastigotes; ED50): 1.50
Dose Required of DhiS-A in combination with Sb^III (Li promastigotes; ED50): 56 µM
DRI of DhiS-A in combination with AmB (Li promastigotes; ED75): 1.90
Dose Required of DhiS-A in combination with AmB (Li promastigotes; ED75): 73.36 µM
DRI of DhiS-A in combination with PMM (Li promastigotes; ED75): 0.60
Dose Required of DhiS-A in combination with PMM (Li promastigotes; ED75): 229 µM
DRI of DhiS-A in combination with Sb^III (Li promastigotes; ED75): 0.99
Dose Required of DhiS-A in combination with Sb^III (Li promastigotes; ED75): 141.12 µM
DRI of DhiS-A in combination with AmB (Li promastigotes; ED90): 2.91
Dose Required of DhiS-A in combination with AmB (Li promastigotes; ED90): 94.08 µM
DRI of DhiS-A in combination with PMM (Li promastigotes; ED90): 0.72
Dose Required of DhiS-A in combination with PMM (Li promastigotes; ED90): 318 µM
DRI of DhiS-A in combination with Sb^III (Li promastigotes; ED90): 0.65
Dose Required of DhiS-A in combination with Sb^III (Li promastigotes; ED90): 355.63 µM
DRI of DhiS-A in combination with AmB (Li promastigotes; ED95): 4.28
Dose Required of DhiS-A in combination with AmB (Li promastigotes; ED95): 111.42 µM
DRI of DhiS-A in combination with PMM (Li promastigotes; ED95): 0.81
Dose Required of DhiS-A in combination with PMM (Li promastigotes; ED95): 399 µM
DRI of DhiS-A in combination with Sb^III (Li promastigotes; ED95): 0.49
Dose Required of DhiS-A in combination with Sb^III (Li promastigotes; ED95): 666.84 µM
IC50 [3]: ~30 µM

COc1cc(C2Oc3cc([C@H]4Oc5cc(O)cc(O)c5C(=O)[C@@H]4O)ccc3OC2CO)ccc1O (stereo partly drawn) [Silybin AB, silybin AB]
Antileishmanial activity on intracellular amastigotes (in words) ([1]; 10 µM): no antileishmanial activity was found
inhibition of growth at 120 µM (Li UCM9 promastigotes; Leishmania infantum, 24 h): 5.4 ± 2.02%
Inhibition on Li promastigotes (in words) (Li UCM9 promastigotes; exploratory screening, 0.94 µM up to 120 µM): neither silymarin nor the main component, silybin, elicited any inhibition
inhibition of growth at 120 µM (Ld promastigotes): 37 ± 3.91%
Inhibition of the multiplication of amastigotes of L. major (amastigotes of L. major): 53%

antimoniate of N-methyl glucamine [Sb^V, reference compound]
Reduction of the multiplication of L. major promastigotes (L. major promastigotes): ca. 70%
Sensitivity of Li promastigotes (in words) (Li UCM9 promastigotes; dose-response 3.75-480 µM): insensitive
